The source of these data is patent US10611778B2, “Fused bicyclic inhibitors of menin-MLL interaction” (Janssen Pharmaceutica NV, priority 2016, dated 2020).

Each structure is given as a SMILES string. pIC50: −log10 of the molar value. A value given as a limit tells only on which side of the number the result lay.

One experiment addresses T1, Menin/MLL (terbium chelate-labeled menin, FITC-MBM1 peptide) (Homo sapiens, UniProt O00255, T541A).
T1 construct: Menin (a.a. 1-610-6×his tag) was labeled with terbium cryptate as follows
T1 sequence (O00255 with tags, fused parts or gaps T541A): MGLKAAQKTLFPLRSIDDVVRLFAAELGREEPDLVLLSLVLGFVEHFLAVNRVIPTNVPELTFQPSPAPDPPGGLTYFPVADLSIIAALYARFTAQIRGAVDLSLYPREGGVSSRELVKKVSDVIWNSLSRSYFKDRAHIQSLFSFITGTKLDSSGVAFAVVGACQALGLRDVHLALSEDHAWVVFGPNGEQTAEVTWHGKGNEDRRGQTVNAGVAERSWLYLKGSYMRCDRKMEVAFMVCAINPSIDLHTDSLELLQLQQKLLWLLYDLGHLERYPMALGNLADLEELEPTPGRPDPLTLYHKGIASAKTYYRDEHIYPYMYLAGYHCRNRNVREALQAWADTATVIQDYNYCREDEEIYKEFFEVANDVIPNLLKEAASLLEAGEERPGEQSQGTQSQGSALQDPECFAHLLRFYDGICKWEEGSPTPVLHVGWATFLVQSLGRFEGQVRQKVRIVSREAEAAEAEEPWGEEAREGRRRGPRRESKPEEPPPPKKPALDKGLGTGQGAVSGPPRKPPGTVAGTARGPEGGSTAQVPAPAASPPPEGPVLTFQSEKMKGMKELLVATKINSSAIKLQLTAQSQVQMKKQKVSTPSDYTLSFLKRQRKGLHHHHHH
Kind of experiment: Menin/MLL homogenous time-resolved fluorescence (HTRF) assay. To be noted: averaged values over all measurements; read-out: Menin HTRF assay (IC50). It counts as binding. As for the experimental part:
3) Menin/MLL Homogenous Time-Resolved Fluorescence (HTRF) Assay
To an untreated, white 384-well microtiter plate was added 40 nL 200× test compound in DMSO and 4 μL 2× terbium chelate-labeled menin (vide infra for preparation) in assay buffer (40 mM Tris-HCl, pH 7.5, 50 mM NaCl, 1 mM DTT and 0.05% Pluronic F-127). After incubation of test compound and terbium chelate-labeled menin for 5 min at ambient temperature, 4 μL 2×FITC-MBM1 peptide (FITC-β-alanine-SARWRFPARPGT-NH2) in assay buffer was added, the microtiter plate centrifuged at 1000 rpm for 1 min and the assay mixtures incubated for 15 min at ambient temperature. The relative amount of menin⋅FITC-MBM1 complex present in an assay mixture is determined by measuring the homogenous time-resolved fluorescence (HTRF) of the terbium/FITC donor/acceptor fluorophore pair using a BMG Pherastar plate reader (ex. 337 nm/terbium em. 490 nm/FITC em. 520 nm) at ambient temperature. The degree of fluorescence resonance energy transfer (the HTRF value) is expressed as the ratio of the fluorescence emission intensities of the FITC and terbium fluorophores (F^em 520 nm/F^em 490 nm). The final concentrations of reagents in the binding assay are 100 pM terbium chelate-labeled menin, 75 nM FITC-MBM1 peptide and 0.5% DMSO in assay buffer. Dose-response titrations of test compounds are conducted using an 11 point, three-fold serial dilution scheme, starting at 31 μM.
Compound potencies were determined by first calculating % inhibition at each compound concentration according to equation 1: % inhibition=((HC−LC)−(HTRF^compound−LC))/(HC−LC))*100 (Eqn 1)
Where LC and HC are the HTRF values of the assay in the presence or absence of a saturating concentration of a compound that competes with FITC-MBM1 for binding to menin, and HTRF^compound is the measured HTRF value in the presence of the test compound. HC and LC HTRF values represent an average of at least 16 replicates per plate.
Where Bottom and Top are the lower and upper asymptotes of the dose-response curve, respectively, IC50 is the concentration of compound that yields 50% inhibition of signal and h is the Hill coefficient.
Preparation of Terbium cryptate labeling of Menin: Menin (a.a. 1-610-6×his tag) was labeled with terbium cryptate as follows. 2 mg of Menin was buffer exchanged into 1× phosphate buffered saline. 16 uM Menin was incubated with 4-fold molar excess NHS-terbium cryptate (Cisbio Bioassays, Bedford, Mass.) for 2 hours at room temperature. The labeled protein was purified away from free label by running the reaction over a Superdex 200 Increase 10/300 GL column at 0.75 ml/min. Peak fractions were collected, aliquoted and frozen at −80° C.
As for `C[C@H](c1cnn(C)c1)N1CC[C@@H]2CN(c3ncnc4sc(CC(F)(F)F)cc34)C[C@@H]2C1` (single isomer, unassigned) [Compound 79A], the pIC50 was 6.02.

`Cc1ncc(CN2CC[C@@H]3CN(c4ncnc5sc(CC(F)(F)F)cc45)C[C@@H]3C2)cn1` (single isomer, unassigned) [Compound 90]: the pIC50 was 6.50.

In the case of `CC(C)[C@@H](c1cnn(C)c1)N1CC[C@@H]2CN(c3ncnc4sc(CC(F)(F)F)cc34)C[C@@H]2C1` (single isomer, unassigned) [Compound 77B], the pIC50 is 5.79.

Turning to `CC(C)CN1CCC2CN(c3ncnc4sc(CC(F)(F)F)cc34)CCC21` (stereo not shown) [Compound 25], the negative logarithm of the IC50 (pIC50) is 6.26.

`O=C([C@@H]1CCCN1)N1CC[C@H]2CN(c3ncnc4sc(CC(F)(F)F)cc34)C[C@H]2C1` [Compound 83]: the pIC50 is 6.01.

As for `Cn1cc(CN2CC[C@@H]3CN(c4ncnc5sc(CC(F)(F)F)cc45)C[C@@H]3C2)cn1` (single isomer, unassigned) [Compound 87], the pIC50 was 7.70.

For the compound `CC(C)(C)OC(=O)N1CCC(O)(CN2CC[C@@H]3CN(c4ncnc5sc(CC(F)(F)F)cc45)C[C@@H]3C2)CC1` (single isomer, unassigned) [Compound 109], the pIC50 was 6.15.

Take `Cn1cc(CN2CC[C@@H]3CN(c4ncnc5sc(CC(F)(F)F)cc45)C[C@@H]3C2)cn1` (single isomer, unassigned) [Compound 71A]: the pIC50 is 6.01.

For `Cn1cc(CN2C(=O)C[C@@H]3CCN(c4ncnc5sc(CC(F)(F)F)cc45)C[C@@H]32)cn1` (single isomer, unassigned) [Compound 35B], the pIC50 is under 4.60.

Consider `FC(F)(F)Cc1cc2c(N3C[C@H]4CCN(Cc5cnccn5)C[C@H]4C3)ncnc2s1` (single isomer, unassigned) [Compound 53], for which the pIC50 was 6.60.

With `FC(F)(F)Cc1cc2c(N3C[C@H]4CN(Cc5cccnc5)CC[C@H]4C3)ncnc2s1` (single isomer, unassigned) [Compound 72], the negative logarithm of the IC50 (pIC50) was 6.00.

In the case of `O=c1cc(CN2CC[C@@H]3CN(c4ncnc5sc(CC(F)(F)F)cc45)C[C@@H]3C2)cc[nH]1` (single isomer, unassigned) [Compound 66], the pIC50 is 6.31.

With `O=C([C@@H]1CCCN1)N1CC[C@@H]2CN(c3ncnc4sc(CC(F)(F)F)cc34)C[C@@H]2C1` [Compound 80], the pIC50 is 6.03.

With `FC(F)(F)Cc1cc2c(N3C[C@H]4CCN(Cc5ccncn5)C[C@H]4C3)ncnc2s1` (single isomer, unassigned) [Compound 50], the negative logarithm of the IC50 (pIC50) was 6.55.

With `FC(F)(F)Cc1cc2c(N3C[C@H]4CCN(CC5(F)CCOCC5)C[C@H]4C3)ncnc2s1` (single isomer, unassigned) [Compound 98], the pIC50 is 6.30.

In the case of `Cn1cc(CN2CC[C@@H]3CN(c4ncnc5sc(CC(F)(F)F)cc45)C[C@@H]32)cn1` [Compound 27C], the pIC50 is 5.34.

In the case of `FC(F)CN1CC[C@@H]2CN(c3ncnc4sc(CC(F)(F)F)cc34)C[C@@H]2C1` (single isomer, unassigned) [Compound 74], the pIC50 was 5.65.

Take `CC(C)[C@H](c1cnn(C)c1)N1CC[C@H]2CN(c3ncnc4sc(CC(F)(F)F)cc34)C[C@H]2C1` (single isomer, unassigned) [Compound 78A]: the pIC50 was 6.28.

Take `CC(C)[C@@H](c1cnn(C)c1)N1CC[C@H]2CN(c3ncnc4sc(CC(F)(F)F)cc34)C[C@H]2C1` (single isomer, unassigned) [Compound 78B]: the pIC50 is 5.88.

For `CC(C)[C@H](c1cnn(C)c1)N1CC[C@@H]2CN(c3ncnc4sc(CC(F)(F)F)cc34)C[C@@H]2C1` (single isomer, unassigned) [Compound 77A], the pIC50 is 6.70.

As for `Cn1cc(CN2C(=O)C[C@H]3CCN(c4ncnc5sc(CC(F)(F)F)cc45)C[C@H]32)cn1` (single isomer, unassigned) [Compound 35A], the negative logarithm of the IC50 (pIC50) is 5.08.

Take `FC(F)(F)Cc1cc2c(N3C[C@H]4CCN(CCc5ccccc5)C[C@H]4C3)ncnc2s1` (single isomer, unassigned) [Compound 48]: the pIC50 is 6.35.

As for `FC(F)(F)Cc1cc2c(N3C[C@H]4CCN(Cc5cncnc5)C[C@H]4C3)ncnc2s1` (single isomer, unassigned) [Compound 104], the pIC50 was 6.43.

As for `Cn1cc(CN2CC[C@H]3CN(c4ncnc5sc(CC(F)(F)F)cc45)C[C@H]32)cn1` [Compound 27D], the pIC50 was about 5.16.

As to `C[C@@H](c1cnn(C)c1)N1CC[C@@H]2CN(c3ncnc4sc(CC(F)(F)F)cc34)C[C@@H]2C1` (single isomer, unassigned) [Compound 79B], the pIC50 is 6.02.

For the compound `FC(F)(F)Cc1cc2c(N3C[C@H]4CCN(CC(F)(F)F)C[C@H]4C3)ncnc2s1` (single isomer, unassigned) [Compound 73], the pIC50 was 5.61.

Regarding `COc1ncc(CN2CC[C@@H]3CN(c4ncnc5sc(CC(F)(F)F)cc45)C[C@@H]3C2)cn1` (single isomer, unassigned) [Compound 88], the pIC50 was 6.57.

Staying with this experiment, now noted: individual measurements (not averaged); read-out: (3) Menin HTRF assay (IC50 (nM)).
With `OCCn1cc(CN2CCC3CN(c4ncnc5sc(CC(F)(F)F)cc45)CCC32)cn1` (stereo not shown) [Compound 24], the IC50 worked out at 244 nM.
